Data: US11266692B2, “Intracellular genomic transplant and methods of therapy” (Regents of the University of Minnesota, priority 2015, dated 2022)

Columns and labels:
Assay in all cases: Validation of gRNAs: Cas9/gRNA plasmids in HEK293T, Surveyor digest, gel densitometry
Type in all cases: cell-based, human
AAVS1 = AAVS1 gene site, 3 days
Description: (§1) HEK293T cells were plated out at a density of 1×10^5 cells per well in a 24 well plate. 150 uL of Opti-MEM medium was combined with 1.5 ug of gRNA plasmid, 1.5 ug of Cas9 plasmid. Another 150 uL of Opti-MEM medium was combined with 5 ul of Lipofectamine 2000 Transfection reagent (Invitrogen). The solutions were combined together and incubated for 15 minutes at room temperature. The DNA-lipid complex was added dropwise to wells of the 24 well plate. Cells were incubated for 3 days at 37° C. and genomic DNA was collected using the GeneJET Genomic DNA Purification Kit (Thermo Scientific). Activity of the gRNAs was quantified by a Surveyor Digest, gel electrophoresis, and densitometry (FIG. 60 and FIG. 61) (Guschin, D. Y., et al., “A Rapid and General Assay for Monitoring Endogenous Gene Modification,” Methods in Molecular Biology, 649: 247-256 (2010)).
(§2) The percentage numbers in Table 7 indicated the percent of gene modifications in the sample.

CCR5 = CCR5 gene site, 3 days
Description: as §1
(§3) The efficiencies of Cas9 in creating double strand break (DSB) with the assistance of different gRNA sequences were listed in Table 7. The percentage numbers in Table 7 indicated the percent of gene modifications in the sample.

CTLA4 = CTLA4 gene site, 3 days
Description: as §1, §3

HPRT = HPRT gene site, 3 days
Description: as §1, §3

PD1 = PD1 gene site, 3 days
Description: as §1, §2

In the case of “AAVS1 gRNA#1: guide RNA to AAVS1; sense primer SEQ ID 19 CACCGTGGGGGTTAGACCCAATATC”, the “efficiency of Cas9/gRNA pair in creating double strand break (DSB), percent of gene modifications” value (AAVS1) is reported as 32.99%.
In the case of “AAVS1 gRNA#2: guide RNA to AAVS1; sense primer SEQ ID 21 CACCGACCCCACAGTGGGGCCACTA”, the “efficiency of Cas9/gRNA pair in creating double strand break (DSB), percent of gene modifications” value (AAVS1) is reported as 27.10%.
For “AAVS1 gRNA#5: guide RNA to AAVS1; sense primer SEQ ID 27 CACCGCCGGCCCTGGGAATATAAGG”, the “efficiency of Cas9/gRNA pair in creating double strand break (DSB), percent of gene modifications” value (AAVS1) was 27.55%.
With “AAVS1 gRNA#6: guide RNA to AAVS1; sense primer SEQ ID 29 CACCGCGGGCCCCTATGTCCACTTC” the “efficiency of Cas9/gRNA pair in creating double strand break (DSB), percent of gene modifications” value (AAVS1) was 39.62%.
“CCR5 gRNA#1: guide RNA to CCR5; sense primer SEQ ID 61 CACCGACAATGTGTCAACTCTTGAC” was tested, and the “efficiency of Cas9/gRNA pair in creating double strand break (DSB), percent of gene modifications” value (CCR5) was 21.47%.
In the case of “CCR5 gRNA#2: guide RNA to CCR5; sense primer SEQ ID 63 CACCGTCATCCTCCTGACAATCGAT”, the “efficiency of Cas9/gRNA pair in creating double strand break (DSB), percent of gene modifications” value (CCR5) is reported as greater than 60%.
“CCR5 gRNA#3: guide RNA to CCR5; sense primer SEQ ID 65 CACCGGTGACAAGTGTGATCACTT” was tested, and the “efficiency of Cas9/gRNA pair in creating double strand break (DSB), percent of gene modifications” value (CCR5) was 55.98%.
For “CCR5 gRNA#4: guide RNA to CCR5; sense primer SEQ ID 67 CACCGACACAGCATGGACGACAGCC”, the “efficiency of Cas9/gRNA pair in creating double strand break (DSB), percent of gene modifications” value (CCR5) was 45.99%.
“CCR5 gRNA#5: guide RNA to CCR5; sense primer SEQ ID 69 CACCGATCTGGTAAAGATGATTCC” was tested, and the “efficiency of Cas9/gRNA pair in creating double strand break (DSB), percent of gene modifications” value (CCR5) was 36.07%.
With “CCR5 gRNA#6: guide RNA to CCR5; sense primer SEQ ID 71 CACCGTTGTATTTCCAAAGTCCCAC” the “efficiency of Cas9/gRNA pair in creating double strand break (DSB), percent of gene modifications” value (CCR5) was 33.17%.
With “CTLA4 gRNA#1: guide RNA to CTLA4; sense primer SEQ ID 47 CACCGCCGGGTGACAGTGCTTCGGC” the “efficiency of Cas9/gRNA pair in creating double strand break (DSB), percent of gene modifications” value (CTLA4) was 40.96%.
In the case of “CTLA4 gRNA#2: guide RNA to CTLA4; sense primer SEQ ID 49 CACCGTGCGGCAACCTACATGATG”, the “efficiency of Cas9/gRNA pair in creating double strand break (DSB), percent of gene modifications” value (CTLA4) is reported as 56.10%.
With “CTLA4 gRNA#3: guide RNA to CTLA4; sense primer SEQ ID 51 CACCGCTAGATGATTCCATCTGCAC” the “efficiency of Cas9/gRNA pair in creating double strand break (DSB), percent of gene modifications” value (CTLA4) was 39.33%.
For “CTLA4 gRNA#4: guide RNA to CTLA4; sense primer SEQ ID 53 CACCGAGGTTCACTTGATTTCCAC”, the “efficiency of Cas9/gRNA pair in creating double strand break (DSB), percent of gene modifications” value (CTLA4) was 40.13%.
For “CTLA4 gRNA#5: guide RNA to CTLA4; sense primer SEQ ID 55 CACCGCCGCACAGACTTCAGTCACC”, the “efficiency of Cas9/gRNA pair in creating double strand break (DSB), percent of gene modifications” value (CTLA4) was 15.90%.
For “CTLA4 gRNA#6: guide RNA to CTLA4; sense primer SEQ ID 57 CACCGCTGGCGATGCCTCGGCTGC”, the “efficiency of Cas9/gRNA pair in creating double strand break (DSB), percent of gene modifications” value (CTLA4) was 36.93%.
With “HPRT gRNA#1: guide RNA to HPRT; sense primer SEQ ID 5 CACCGCACGTGTGAACCAACCCGCC” the “efficiency of Cas9/gRNA pair in creating double strand break (DSB), percent of gene modifications” value (HPRT) was 27.85% ^.
With “HPRT gRNA#2: guide RNA to HPRT; sense primer SEQ ID 7 CACCGAAACAACAGGCCGGGCGGGT” the “efficiency of Cas9/gRNA pair in creating double strand break (DSB), percent of gene modifications” value (HPRT) was 30.04% ^.
For “HPRT gRNA#3: guide RNA to HPRT; sense primer SEQ ID 9 CACCGACAAAAAAATTAGCCGGGTG”, the “efficiency of Cas9/gRNA pair in creating double strand break (DSB), percent of gene modifications” value (HPRT) was less than 1%.
“HPRT gRNA#4: guide RNA to HPRT; sense primer SEQ ID 11 CACCGTAAATTTCTCTGATAGACTA” was tested, and the “efficiency of Cas9/gRNA pair in creating double strand break (DSB), percent of gene modifications” value (HPRT) was less than 5%.
In the case of “HPRT gRNA#5: guide RNA to HPRT; sense primer SEQ ID 13 CACCGTGTTTCAATGAGAGCATTAC”, the “efficiency of Cas9/gRNA pair in creating double strand break (DSB), percent of gene modifications” value (HPRT) is reported as less than 1%.
For “HPRT gRNA#6: guide RNA to HPRT; sense primer SEQ ID 15 CACCGGTCTCGAACTCCTGAGCTC”, the “efficiency of Cas9/gRNA pair in creating double strand break (DSB), percent of gene modifications” value (HPRT) was less than 5%.
For “PD1 gRNA#1: guide RNA to PD-1; sense primer SEQ ID 33 CACCGCGGAGAGCTTCGTGCTAAAC”, the “efficiency of Cas9/gRNA pair in creating double strand break (DSB), percent of gene modifications” value (PD1) was 10.83%.
“PD1 gRNA#2: guide RNA to PD-1; sense primer SEQ ID 35 CACCGCCTGCTCGTGGTGACCGAAG” was tested, and the “efficiency of Cas9/gRNA pair in creating double strand break (DSB), percent of gene modifications” value (PD1) was greater than 60%.
In the case of “PD1 gRNA#4: guide RNA to PD-1; sense primer SEQ ID 39 CACCGAGGCGGCCAGCTTGTCCGTC”, the “efficiency of Cas9/gRNA pair in creating double strand break (DSB), percent of gene modifications” value (PD1) is reported as 20.87%.
In the case of “PD1 gRNA#5: guide RNA to PD-1; sense primer SEQ ID 41 CACCGCGTTGGGCAGTTGTGTGACA”, the “efficiency of Cas9/gRNA pair in creating double strand break (DSB), percent of gene modifications” value (PD1) is reported as 30.60%.
“PD1 gRNA#6: guide RNA to PD-1; sense primer SEQ ID 43 CACCGACGGAAGCGGCAGTCCTGGC” was tested, and the “efficiency of Cas9/gRNA pair in creating double strand break (DSB), percent of gene modifications” value (PD1) was 25.91%.
